Test results reported in US9487482B2, “3,4,5-trimethoxystyrylarylaminopropenones as potential anticancer agents” (Council of Scientific and Industrial Research, priority 2014, dated 2016).

What was measured:
HeLa cells = assay: In vitro cytotoxicity, MTT assay, HeLa; type: cell-based, human; details: HeLa (cervical carcinoma), 48 h continuous drug exposure
Protocol: (§1) All cell lines used in this study were purchased from the American Type Culture Collection (ATCC, United States). A549, MCF-7, and HeLa were grown in Dulbecco's modified Eagle's medium (containing 10% FBS in a humidified atmosphere of 5% CO2 at 37° C.). HCT116 cells were cultured in Eagle's minimal essential medium (MEM) containing non-essential amino acids, 1 mM sodium pyruvate, […] bovine insulin, and 10% FBS. Cells were trypsinized when sub-confluent from T25 flasks/60 mm dishes and seeded in 96-well plates. The synthesized test compounds were evaluated for their in vitro antiproliferative in four different human cancer cell lines. A protocol of 48 h continuous drug exposure was used, and a MTT cell proliferation assay was used to estimate cell viability or growth. The cell lines were grown in their respective media containing 10% fetal bovine serum and were seeded into 96-well microtiter plates in 200 μL, aliquots at plating densities depending on the doubling time of individual cell lines. The microtiter plates were incubated at 37° C., 5% CO2, 95% air, and 100% relative humidity for 24 h prior to addition of experimental drugs. Aliquots of 2 μL, of the test compounds were added to the wells already containing 198 μL, of cells, resulting in the required final drug concentrations. For each compound, four concentrations (1, 10, 100, and 1000 μM) were evaluated, and each was done in triplicate wells. Plates were incubated further for 48 h, and the assay was terminated by the addition of 10 μL, of 5% MTT and incubated for 60 min at 37° C. Later, the plates were air-dried. Bound stain was subsequently eluted with 100 μL, of DMSO, and the absorbance was read on an multimode plate reader (Tecan M200) at a wavelength of 560 nm. Percent growth was calculated on a plate by plate basis for test wells relative to control wells. The above determinations were repeated thrice. The growth inhibitory effects of the compounds were analyzed by generating dose response curves as a plot of the percentage surviving cells versus compound concentration. The sensitivity of the cancer cells to the test compound was expressed in terms of IC50, a value defined as the concentration of compound that produced 50% reduction as compared to the control absorbance. (A. S. Kumar, M. A. Reddy, N. Jain, C. Kishor, T. R. Murthy, D. Ramesh, B. Supriya, A. Addlagatta, S. V. Kalivendi, B. Sreedhar. Eur. J. Med. Chem. 60 (2013) 305-24).

A549 cells = assay: In vitro cytotoxicity, MTT assay, A549; type: cell-based, human; details: A549 (non-small cell lung cancer), 48 h continuous drug exposure
Protocol: as §1

MCF-7 cells = assay: In vitro cytotoxicity, MTT assay, MCF-7; type: cell-based, human; details: 48 h continuous drug exposure
Protocol: as §1

HCT116 cells = assay: In vitro cytotoxicity, MTT assay, HCT116; type: cell-based, human; details: 48 h continuous drug exposure
Protocol: as §1

[1] = system: A549, HeLa, MCF-7 and HCT116 cells; assay: In vitro cytotoxicity, MTT assay, summary over all four cancer cell lines; type: cell-based; details: Homo sapiens, range over the group of compounds and the four cell lines, read-out: IC50 value range towards all the cancer cell lines
Protocol: as §1

[2] = Homo sapiens, MCF7, 48 h, MCF-7 (breast cancer)
[3] = Homo sapiens, HCT-116, HCT116 (colon carcinoma)
[4] = Homo sapiens, MCF7, MCF-7 (breast cancer)

SMILES	IC50 (HeLa cells) [µM]	IC50 (A549 cells) [µM]	IC50 (MCF-7 cells; MCF-7 (breast cancer)) [µM]	IC50 (HCT116 cells; HCT116 (colon carcinoma)) [µM]	IC50 (HeLa cells; Homo sapiens) [µM]	IC50 (A549 cells; Homo sapiens) [µM]	IC50 [1] [nM]	IC50 (MCF-7 cells; [2]) [µM]	IC50 (HCT116 cells; [3]) [µM]	IC50 (MCF-7 cells; [4]) [µM]
COc1ccc(/C=C\c2cc(OC)c(OC)c(OC)c2)cc1OP(=O)(O)O [Ca-4, Combretastatin, reference compound]	0.58	0.31	0.58	3.98	–	–	–	–	–	–
COc1ccc(/C=C\c2cc(OC)c(OC)c(OC)c2)cc1N/C=C\C(=O)c1ccc(OC(F)(F)F)cc1 [Compound 10o, (Z)-3-((2-methoxy-5-((Z)-3,4,5-trimethoxystyryl)phenyl)amino)-1-(4-(trifluoromethoxy)phenyl)prop-2-en-1-one]	–	–	–	–	0.26	2.69	110 to 4680	1.32	2.95	–
COc1ccc(C(=O)/C=C\Nc2cc(/C=C\c3cc(OC)c(OC)c(OC)c3)ccc2OC)cc1O [Compound 10q, (Z)-1-(3-hydroxy-4-methoxyphenyl)-3-((2-methoxy-5-((Z)-3,4,5-trimethoxystyryl)phenyl)amino)prop-2-en-1-one]	–	–	–	–	0.23	3.89	110 to 4680	4.68	0.83	–
COc1ccc(/C=C\c2cc(OC)c(OC)c(OC)c2)cc1N/C=C\C(=O)c1ccc(OC)c([N+](=O)[O-])c1 [Compound 10t, (Z)-1-(4-methoxy-3-nitrophenyl)-3-((2-methoxy-5-((Z)-3,4,5-trimethoxystyryl)phenyl)amino)prop-2-en-1-one]	–	–	–	–	0.21	0.77	110 to 4680	2	1.29	–
COc1ccc(C(=O)/C=C\Nc2cc(/C=C\c3cc(OC)c(OC)c(OC)c3)ccc2OC)cc1N [Compound 10u, (Z)-1-(3-amino-4-methoxyphenyl)-3-((2-methoxy-5-((Z)-3,4,5-trimethoxystyryl)phenyl)amino)prop-2-en-1-one]	–	–	–	–	0.52	2.4	110 to 4680	–	0.77	0.25
COc1ccc(C=Cc2cc(OC)c(OC)c(OC)c2)cc1N/C=C\C(=O)c1c[nH]c2ccccc12 [Compound 10v, (Z)-1-(1H-indol-3-yl)-3-(2-methoxy-5-(3,4,5-trimethoxystyryl)phenylamino)prop-2-en-1-one]	–	–	–	–	0.53	0.17	110 to 4680	0.11	0.33	–
COc1ccc(C=Cc2cc(OC)c(OC)c(OC)c2)cc1N/C=C\C(=O)c1cn(C)c2ccccc12 [Compound 10w, (Z)-3-(2-methoxy-5-(3,4,5-trimethoxystyryl)phenylamino)-1-(1-methyl-1H-indol-3-yl)prop-2-en-1-one]	–	–	–	–	0.46	0.67	110 to 4680	1.07	0.37	–
COc1ccc(/C=C\c2cc(OC)c(OC)c(OC)c2)cc1N/C=C\C(=O)c1cc(OC)c(OC)c(OC)c1 [Compound 10x, (Z)-3-((2-methoxy-5-((Z)-3,4,5-trimethoxystyryl)phenyl)amino)-1-(3,4,5-trimethoxyphenyl)prop-2-en-1-one]	–	–	–	–	0.26	1.68	110 to 4680	0.27	1.51	–
COc1ccc(/C=C\c2cc(OC)c(OC)c(OC)c2)cc1N/C=C\C(=O)c1cc(OC)c(OC)c(OC)c1Br [Compound 10y, (Z)-1-(2-bromo-3,4,5-trimethoxyphenyl)-3-((2-methoxy-5-((Z)-3,4,5-trimethoxystyryl)phenyl)amino)prop-2-en-1-one]	–	–	–	–	0.25	3.51	110 to 4680	2.95	3.98	–
COc1cc(/C=C\c2cc(OC)c(OC)c(OC)c2)cc(N/C=C\C(=O)c2ccc(OC(F)(F)F)cc2)c1OC [Compound 11o, (Z)-3-((2,3-dimethoxy-5-((Z)-3,4,5-trimethoxystyryl)phenyl)amino)-1-(4-(trifluoromethoxy)phenyl)prop-2-en-1-one]	–	–	5.75	–	1.86	0.21	120 to 5750	5.7	7.08	–
COc1ccc(C(=O)/C=C\Nc2cc(/C=C\c3cc(OC)c(OC)c(OC)c3)cc(OC)c2OC)cc1O [Compound 11q, (Z)-3-((2,3-dimethoxy-5-((Z)-3,4,5-trimethoxystyryl)phenyl)amino)-1-(3-hydroxy-4-methoxyphenyl)prop-2-en-1-one]	–	–	–	–	1.91	0.32	120 to 5750	2.09	3.24	–
COc1ccc(C(=O)/C=C\Nc2cc(/C=C\c3cc(OC)c(OC)c(OC)c3)cc(OC)c2OC)cc1[N+](=O)[O-] [Compound 11t, (Z)-3-((2,3-dimethoxy-5-((Z)-3,4,5-trimethoxystyryl)phenyl)amino)-1-(4-methoxy-3-nitrophenyl)prop-2-en-1-one]	–	–	–	–	1.2	0.15	120 to 5750	1.55	4.79	–
COc1ccc(C(=O)/C=C\Nc2cc(/C=C\c3cc(OC)c(OC)c(OC)c3)cc(OC)c2OC)cc1N [Compound 11u, (Z)-1-(3-amino-4-methoxyphenyl)-3-((2,3-dimethoxy-5-((Z)-3,4,5-trimethoxystyryl)phenyl)amino)prop-2-en-1-one]	–	–	–	–	4.27	0.12	120 to 5750	5.25	7.59	–
COc1cc(C=Cc2cc(OC)c(OC)c(OC)c2)cc(N/C=C\C(=O)c2c[nH]c3ccccc23)c1OC [Compound 11v, (Z)-3-(2,3-dimethoxy-5-(3,4,5-trimethoxystyryl)phenylamino)-1-(1H-indol-3-yl)prop-2-en-1-one]	–	–	–	–	0.67	0.56	120 to 5750	–	1.48	3.02
COc1cc(C=Cc2cc(OC)c(OC)c(OC)c2)cc(N/C=C\C(=O)c2cn(C)c3ccccc23)c1OC [Compound 11w, (Z)-3-(2,3-dimethoxy-5-(3,4,5-trimethoxystyryl)phenylamino)-1-(1-methyl-1H-indol-3-yl)prop-2-en-1-one]	–	–	–	–	5.89	0.14	120 to 5750	3.39	1.95	–
COc1cc(/C=C\c2cc(OC)c(OC)c(OC)c2)cc(N/C=C\C(=O)c2cc(OC)c(OC)c(OC)c2)c1OC [Compound 11x, (Z)-3-((2,3-dimethoxy-5-((Z)-3,4,5-trimethoxystyryl)phenyl)amino)-1-(3,4,5-trimethoxyphenyl)prop-2-en-1-one]	–	–	–	–	3.72	3.33	120 to 5750	7.08	0.28	–
COc1cc(/C=C\c2cc(OC)c(OC)c(OC)c2)cc(N/C=C\C(=O)c2cc(OC)c(OC)c(OC)c2Br)c1OC [Compound 11y, (Z)-1-(2-bromo-3,4,5-trimethoxyphenyl)-3-((2,3-dimethoxy-5-((Z)-3,4,5-trimethoxystyryl)phenyl)amino)prop-2-en-1-one]	–	–	–	–	1.58	0.28	120 to 5750	5.37	0.3	–
COc1ccc(/C=C\c2cc(OC)c(OC)c(OC)c2)c(N/C=C\C(=O)c2ccc(OC(F)(F)F)cc2)c1O [Compound 16o, (Z)-3-((2-hydroxy-3-methoxy-6-((Z)-3,4,5-trimethoxystyryl)phenyl)amino)-1-(4-(trifluoromethoxy)phenyl)prop-2-en-1-one]	–	–	–	–	7.08	1.32	180 to 7330	2.24	1.95	–
COc1ccc(C(=O)/C=C\Nc2c(/C=C\c3cc(OC)c(OC)c(OC)c3)ccc(OC)c2O)cc1O [Compound 16q, (Z)-3-((2-hydroxy-3-methoxy-6-((Z)-3,4,5-trimethoxystyryl)phenyl)amino)-1-(3-hydroxy-4-methoxyphenyl)prop-2-en-1-one]	–	–	–	–	4.17	1.58	180 to 7330	0.2	6.76	–
